Reference: patent US20250353873A1, “COMPOUNDS AND METHODS FOR MODULATING APOE EXPRESSION” (Ionis Pharmaceuticals, Inc., priority 2024, published 2025)
Strand notation (5' to 3'): a small letter for the sugar, then the base; units joined by * are phosphorothioate-linked, units joined directly phosphodiester-linked; [ ] holds rarer units or linkages, { } end groups; capitals alone tell only the bases. [ms] = mesyl phosphoramidate linkage; e = 2'-O-(2-methoxyethyl) (MOE); k = constrained ethyl (cEt); [5mC] = 5-methylcytosine; d = 2'-deoxy (DNA)

Legend:
[1] = system: human APOE RNA; assay: Dose-dependent inhibition of human APOE RNA in HepG2 cells, electroporation, 50,000 cells per well, RT-PCR normalized to GAPDH (Example 4, Tables 8-10); assay type: cell-based; settings: HepG2, electroporation, 24-hour treatment
Experimental: Modified oligonucleotides selected from the examples above were tested at various doses in HepG2 cells. The modified oligonucleotides were tested in a series of experiments that had the same culture conditions. Each experiment is identified in separate tables below.
HepG2 cells plated at a density of 50,000 cells per well were treated by electroporation with various concentrations of modified oligonucleotide as specified in the tables below. […] APOE RNA levels were measured using the human primer probe set RTS3073 (forward sequence […], designated herein as SEQ ID NO: 7; reverse sequence CCATCAGCGCCCTCAGTT, designated herein as SEQ ID NO: 8; probe sequence […], designated herein as SEQ ID NO:9). APOE RNA levels were normalized to human GAPDH. […] Results are presented as percent APOE RNA, relative to the amount of APOE RNA in untreated control cells (UTC).

[2] = system: human APOE RNA; assay: Activity in APOE C57BL/6NTac-Apoeem7250 knock-in mice, single ICV bolus, 4 weeks (Example 10); assay type: in vivo; settings: single ICV bolus 300 μg, 4 weeks post treatment, normalized to mouse Ppia
Experimental: Modified oligonucleotides described above were tested in the APOE C57BL/6NTac-Apoeem7250 knock-in mouse model described above.
APOE C57BL/6NTac-Apoeem7250 knock-in mice were divided into groups of 2-4 mice each. Each mouse received a single ICV bolus of 300 μg of modified oligonucleotide. A group of 3-4 mice received a single ICV bolus with PBS as a negative control.
Four weeks post treatment, mice were sacrificed and RNA was extracted from cortical brain tissue and spinal cord for quantitative real-time RT-PCR analysis of RNA expression of APOE using human primer probe set RTS3073 (described herein above). APOE RNA levels were normalized to mouse Ppia. Mouse Ppia was amplified using primer probe set m_cyclo24 (described herein above). Results are presented as percent human APOE RNA relative to the amount of human APOE RNA in PBS treated animals, (% control). Each experiment is identified in separate tables below.

[3] = system: human APOE RNA; assay: Activity in APOE C57BL/6NTac-Apoeem7250 knock-in mice, single ICV bolus, 8 weeks (Example 11); assay type: in vivo; settings: single ICV bolus 300 μg, 8 weeks post treatment, normalized to mouse Ppia
How it was run: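 Cortical and spinal cord human APOE RNA quantified by RT-qPCR 8 weeks after a single 300 μg ICV dose in knock-in mice, Ppia-normalized. Values are percent of levels in PBS-treated animals.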

[4] = system: human APOE RNA; assay: Activity in APOE C57BL/6NTac-Apoeem7250 knock-in mice, single ICV bolus, 16 weeks (Example 12); assay type: in vivo; settings: single ICV bolus 300 μg, 16 weeks post treatment, normalized to mouse Ppia
How it was run: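 A single 300 μg intracerebroventricular dose was given, with PBS-treated mice as reference; cortical and spinal cord tissue was taken 16 weeks later. RT-qPCR quantified human APOE RNA, Ppia-normalized, expressed relative to PBS animals (% control).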

Row | Substance | APOE RNA (% UTC) ([1]; 5 nM) | APOE RNA (% UTC) ([1]; 13 nM) | APOE RNA (% UTC) ([1]; 33 nM) | APOE RNA (% UTC) ([1]; 82 nM) | APOE RNA (% UTC) ([1]; 205 nM) | APOE RNA (% UTC) ([1]; 512 nM) | APOE RNA (% UTC) ([1]; 1,280 nM) | APOE RNA (% UTC) ([1]; 3,200 nM) | APOE RNA (% UTC) ([1]; 8,000 nM) | APOE RNA (% UTC) ([1]; 20,000 nM) | IC50 [1] [µM] | APOE RNA (% control) Cortex [2] [% control] | APOE RNA (% control) Spinal Cord [2] [% control] | APOE RNA (% control) Cortex [3] [% control] | APOE RNA (% control) Spinal Cord [3] [% control] | APOE RNA (% control) Cortex [4] [% control] | APOE RNA (% control) Spinal Cord [4] [% control]
1 | 1746794 (k[5mC]*kT*kT*dG[ms]dG[ms]dT[ms]dG[ms]dA[ms]dA[ms]dT*d[5mC]*dT*dT*dT*dA[ms]dT*kT*dA[ms]kA*kA; antisense) [Compound 1746794] | 119 | 107 | 94 | 91 | 67 | 72 | 37 | 16 | 9 | 3 | 0.8 | 76 | 41 |  |  |  | 
2 | 1746797 (k[5mC]*kT*dT[ms]dG[ms]dG[ms]kT*dG[ms]dA[ms]dA[ms]dT*d[5mC]*dT*dT*dT*dA[ms]dT*kT*dA[ms]kA*kA; antisense) [Compound 1746797] | 139 | 128 | 150 | 143 | 129 | 113 | 71 | 37 | 42 | 18 | 3.77 | 72 | 68 |  |  |  | 
3 | 1746786 (k[5mC]*kT*dT[ms]dG[ms]kG*dT[ms]dG[ms]dA[ms]dA[ms]dT*d[5mC]*dT*dT*dT*dA[ms]dT*kT*kA*dA[ms]kA; antisense) [Compound 1746786] | 85 | 93 | 90 | 75 | 87 | 63 | 39 | 34 | 18 | 14 | 1.01 | 79 | 52 |  |  |  | 
4 | 1746787 (k[5mC]*kT*dT[ms]dG[ms]dG[ms]kT*dG[ms]dA[ms]dA[ms]dT*d[5mC]*dT*dT*dT*dA[ms]dT*kT*kA*dA[ms]kA; antisense) [Compound 1746787] | 148 | 108 | 92 | 97 | 87 | 68 | 56 | 37 | 11 | 14 | 1.52 | 76 | 71 |  |  |  | 
5 | 1746796 (k[5mC]*kT*dT[ms]dG[ms]kG*dT[ms]dG[ms]dA[ms]dA[ms]dT*d[5mC]*dT*dT*dT*dA[ms]dT*kT*dA[ms]kA*kA; antisense) [Compound 1746796] | 110 | 126 | 128 | 137 | 119 | 89 | 71 | 40 | 28 | 20 | 3.01 | 81 | 68 |  |  |  | 
6 | 1746792 (k[5mC]*dT[ms]dT[ms]kG*dG[ms]kT*dG[ms]dA[ms]dA[ms]dT*d[5mC]*dT*dT*dT*dA[ms]dT*kT*kA*dA[ms]kA; antisense) [Compound 1746792] | 80 | 102 | 90 | 87 | 68 | 44 | 17 | 12 | 8 | 6 | 0.4 | 71 | 49 |  |  |  | 
7 | 1746812 (k[5mC]*dT[ms]dT[ms]dG[ms]kG*kT*dG[ms]dA[ms]dA[ms]dT*d[5mC]*dT*dT*dT*dA[ms]dT*dT[ms]kA*kA*kA; antisense) [Compound 1746812] | 105 | 109 | 90 | 102 | 86 | 76 | 51 | 31 | 19 | 11 | 1.5 | 68 | 79 |  |  |  | 
8 | 1746802 (k[5mC]*dT[ms]dT[ms]dG[ms]kG*kT*dG[ms]dA[ms]dA[ms]dT*d[5mC]*dT*dT*dT*dA[ms]dT*kT*dA[ms]kA*kA; antisense) [Compound 1746802] | 76 | 108 | 74 | 72 | 58 | 57 | 36 | 47 | 39 | 3 | 0.78 | 72 | 52 |  |  |  | 
9 | 1746807 (k[5mC]*kT*dT[ms]dG[ms]dG[ms]kT*dG[ms]dA[ms]dA[ms]dT*d[5mC]*dT*dT*dT*dA[ms]dT*dT[ms]kA*kA*kA; antisense) [Compound 1746807] | 119 | 127 | 111 | 86 | 88 | 62 | 52 | 29 | 16 | 30 | 1.43 | 90 | 119 |  |  |  | 
10 | 1681006: 5-10-5 MOE gapmer GGTGAATCTTTATTAAACTA, linkages ssssszsssszzszzssss (antisense eG*eG*eT*eG*eA*dA[ms]dT*d[5mC]*dT*dT*dT[ms]dA[ms]dT*dT[ms]dA[ms]eA*eA*e[5mC]*eT*eA) [compound 1681006] |  |  |  |  |  |  |  |  |  |  |  |  |  | 85 | 71 | 120 | 80
11 | 1693040: 5-10-5 MOE gapmer CTTGGTGAATCTTTATTAAA, linkages sssosszzzssssssosss (antisense e[5mC]*eT*eT*eGeG*dT*dG[ms]dA[ms]dA[ms]dT*d[5mC]*dT*dT*dT*dA*eTeT*eA*eA*eA) [compound 1693040] |  |  |  |  |  |  |  |  |  |  |  |  |  | 80 | 77 | 92 | 71
12 | 1681004: 5-10-5 MOE gapmer GGTGAATCTTTATTAAACTA, linkages ssooszsssszzszsooss (antisense eG*eG*eTeGeA*dA[ms]dT*d[5mC]*dT*dT*dT[ms]dA[ms]dT*dT[ms]dA*eAeAe[5mC]*eT*eA) [compound 1681004] |  |  |  |  |  |  |  |  |  |  |  |  |  | 120 | 89 | 127 | 61
